Measurements: patent US20230085686A1, “Multicompartement hydrogel fibre their preparation and uses thereof” (Association For The Advancement Of Tissue Engineering And …, priority 2020, published 2023)

Test system: Melanoma cells of the Sk-MEL-28 cell line
Experiment: Drug test with doxorubicin in modular cancer/BM/stroma ribbon fibres, Calcein AM / Propidium Iodide viability
Assay type: cell-based, human
Details: 1 μM Doxorubicin, 24 h treatment
Description: Melanoma cells of the Sk-MEL-28 (ATCC) cell line were encapsulated in the GG/GelMA compartment and human dermal fibroblasts (hDFs) were encapsulated in the GG compartment, both representing the cancer and stroma, respectively, separated by the basement-membrane-mimicking GelTrex/HA. […] In order to track the different cell types, these were stained with CellBrite Green and Orange (Biotium) according to the manufacturer's instructions. […] With this model, melanoma cells were included in the cancer compartment, and dermal fibroblasts within the stromal compartment, both separated by a GelTrex BM in a unique melanoma-on-a-fibre structure. Fibres with tracked cells were observed under an Inverted Confocal Laser Scanning Microscope (Leica), throughout one week of culture.
For the drug tests, fibroblasts were stained blue prior to encapsulation using CellTracker blue CMAC Dye (7-amino 4-chloromethylcoumarin, Molecular Probes) according to manufacturer's instructions. These were then integrated in the fibres together with the cancer cells, and all modular fibres were produced. 24 h after fabrication, fibres were incubated with either culture medium (no treatment) or culture medium containing 1 μM of Doxorubicin (Carbosynth). One day after treatment, samples were incubated with medium containing 1:1000 dilution of Calcein AM (Thermofisher) and 1 μg/mL Propidium Iodide (Molecular Probes) for 30 mins at 37° C., 5% CO2, for viability assessment. Images of the fibres were acquired in the Axio Observer inverted Microscope (Zeiss), and a cell profiler pipeline was used to derive the numbers of live and dead cells using the blue staining to distinguish fibroblasts from melanoma cells. Similarly, 2D controls were obtained by simply seeding the cells individually or in co-culture in 24 well-plates at a density of 20×10^3 cells per well (10×10^3 cells of each type in the case of co-cultures). 2D controls were then processed in the same way as the fibres. […]

COc1cccc2c1C(=O)c1c(O)c3c(c(O)c1C2=O)C[C@@](O)(C(=O)CO)C[C@@H]3O[C@H]1C[C@H](N)[C@H](O)[C@H](C)O1 [Doxorubicin]
cancer cell viability vs. the control (cancer-only fibres): significant drop in viability
cancer cell viability vs. the control (cancer/stroma fibres (no BM)): no longer significant
numbers of live cancer cells upon treatment (full cancer/BM/stroma fibres): numbers of live cancer cells can improve
